These results are taken from article PMC3038857, “Using Nuclear Receptor Activity to Stratify Hepatocarcinogens” (PLoS ONE, 2011).

In series [1] the target is T1, PPARG (peroxisome proliferator-activated receptor gamma) (Homo sapiens, UniProt P37231).
T1 construct: expressed in transfected cells; host or cells: HepG2
T1 sequence (P37231 1-505): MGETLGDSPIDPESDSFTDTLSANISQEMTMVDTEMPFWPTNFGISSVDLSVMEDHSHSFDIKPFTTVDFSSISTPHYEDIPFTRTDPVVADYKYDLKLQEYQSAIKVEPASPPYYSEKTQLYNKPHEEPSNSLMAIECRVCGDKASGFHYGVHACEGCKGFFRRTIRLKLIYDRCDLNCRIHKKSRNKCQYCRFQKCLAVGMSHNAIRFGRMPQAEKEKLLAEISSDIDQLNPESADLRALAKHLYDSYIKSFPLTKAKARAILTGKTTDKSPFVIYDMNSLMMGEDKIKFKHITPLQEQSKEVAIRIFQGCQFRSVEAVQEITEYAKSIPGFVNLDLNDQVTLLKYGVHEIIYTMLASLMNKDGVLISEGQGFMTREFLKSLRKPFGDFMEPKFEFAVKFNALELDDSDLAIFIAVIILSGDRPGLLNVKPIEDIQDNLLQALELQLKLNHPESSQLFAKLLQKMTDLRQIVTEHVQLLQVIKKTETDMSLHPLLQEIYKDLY
Nature of the series: ATG_PPARg_TRANS: Factorial reporter gene assay (HepG2). In kind it is cell-based. The essentials: (§1)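 Mammalian one-hybrid trans reporters (25 MRTUs) measured ERRg, FXR and PPARg; PXRE used cis reporters from a 48-site MRTU library. Both were run in HepG2. Dosing: seven concentrations, MTC as the highest, three-fold dilution series.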
A general note: In a reporter assay the amount or activity of a reporter protein is the signal.

In series [2] the target is T2, PXR (NR1I2) (Homo sapiens, UniProt O75469).
T2 sequence (O75469 1-434): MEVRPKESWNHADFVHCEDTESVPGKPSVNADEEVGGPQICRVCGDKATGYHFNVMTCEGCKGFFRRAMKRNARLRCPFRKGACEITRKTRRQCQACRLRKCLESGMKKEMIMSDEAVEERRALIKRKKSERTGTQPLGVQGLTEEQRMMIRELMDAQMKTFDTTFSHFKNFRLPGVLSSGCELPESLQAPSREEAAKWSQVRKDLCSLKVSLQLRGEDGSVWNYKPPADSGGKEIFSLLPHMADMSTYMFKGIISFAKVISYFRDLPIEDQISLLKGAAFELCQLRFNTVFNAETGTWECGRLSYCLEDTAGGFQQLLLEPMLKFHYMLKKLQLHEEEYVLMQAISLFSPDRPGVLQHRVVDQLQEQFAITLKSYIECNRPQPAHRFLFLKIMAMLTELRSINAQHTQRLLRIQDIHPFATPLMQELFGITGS
The experiment in a line: NVS_NR_hPXR: Human PXR Fluormone PXR (SXR) green (cell-free HTS). Type of series: binding. The essentials: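 Cell-free biochemical binding assays; chemicals first screened at a single concentration of 25 […] M in duplicate wells. Signals normalised to same-plate solvent controls as percent of neutral control, and AC50 values came from Hill-equation fits of concentration-response curves.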

A further series has as its target T3, PPARg (PPARG) (Homo sapiens, UniProt P37231).
T3 sequence (P37231 1-505): T1 sequence (P37231 1-505)
Nature of the series: NVS_NR_hPPARg: Human PPARg Fluorescent Ligand (cell-free HTS). In kind it is binding. An excerpt:
(§2) These are a collection of biochemical assays measuring binding constants and enzyme inhibition values. Chemicals were initially screened at a single concentration in duplicate wells at a concentration of 10 [drawing 63] M for cytochrome P-450 assays and 25 [drawing 64] M for all others. […] These assays were run by Caliper Life Sciences (Hanover, MD) under contract to EPA. Short assay descriptions are available at: http://www.caliperls.com/products/contract-research/in-vitro/.
(§3) Cell-free HTS Assays: A collection of biochemical assays measuring binding constants and enzyme inhibition values. […] These assays were run by Caliper Life Sciences (Hanover, MD) under contract to EPA. Short assay descriptions are available at http://www.caliperls.com/products/contract-research/in-vitro/. Values for all endpoints were imported into GeneData Screener (Basel, Switzerland) and normalised to solvent controls from the same plate as the tested compounds and expressed as percent of neutral control. Concentration-response curves were fit in GeneData Screener (Basel, Switzerland) Condeseo module using the Hill equation and AC50 values were determined. […] Detailed description of the methods, data and analysis methods for this dataset are described in a separate publication.

The test system of another series is CYP2B6. Nature of the series: CLZD_CYP2B6: Change in expression of CYP2B6 (primary human hepatocytes). In kind it is cell-based. As to conditions: 24 hr. The essentials:
(§4)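 Chemicals are tested in human hepatocyte primary cultures over 0.004-40 µM (5 concentrations) for 6, 24 or 48 hr, and concentration- and time-dependent transcript changes are read by quantitative nuclease protection assay.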

Series [3] deals with T2, PXR (NR1I2). The experiment in a line: ATG_PXRE_CIS: Factorial reporter gene assay (HepG2). Type of series: cell-based. Set-up: endogenous in cells; host or cells: HepG2. In a few lines:
as §1

The test system of another series is CYP3A4. The experiment in a line: CLZD_CYP3A4: Change in expression of CYP3A4 (primary human hepatocytes). As to conditions: 24 hr. Type of series: cell-based. In a few lines:
as §4

In a further series the test system is AR (androgen receptor). The experiment in a line: NVS_NR_hAR: Human AR 3H-Methyltrienolone (cell-free HTS). In kind it is binding.
Source text: as §2, §3

In series [4] the test system is Rat Liver. As to conditions: chronic study, rat liver; ref ToxRefDB; cited from earlier work.
Series [5] concerns Rat Liver. As to conditions: chronic study, rat liver; ref ToxRefDB; cited from earlier work. This is another data set of the same source.
A further series deals with ABCB11. Nature of the series: CLZD_ABCB11: Change in expression of ABCB11 (primary human hepatocytes). In kind it is cell-based. As to conditions: 24 hr. Here is the method:
This is a collection of multiplexed gene expression assays focused on Phase I and II xenobiotic metabolizing enzymes and transporters. Human primary cell cultures were treated with chemicals at 5 concentrations (0.004-40 [drawing 42] M) for 6, 24 and 48 hr. Concentration- and time-response profiles of chemicals were measured by the expression of key nuclear receptor target genes, activities of CYP1A enzymes (EROD), and cell morphology. Fourteen gene targets were monitored by quantitative nuclease protection assay including: six representative cytochrome P-450 genes, four hepatic transporters, three Phase II conjugating enzymes, and one endogenous metabolism gene involved in cholesterol synthesis. The target genes associated with nuclear receptor pathways are as follows: [drawing 43] and [drawing 44] with [drawing 45]; [drawing 46] , [drawing 47] , [drawing 48] , [drawing 49] , [drawing 50] and [drawing 51] with [drawing 52]; [drawing 53] , [drawing 54] , [drawing 55] and [drawing 56] with [drawing 57]; [drawing 58] with [drawing 59]; and [drawing 60] with [drawing 61] . Assays were run in primary human hepatocyte cultures by CellzDirect Invitrogen Inc. (Durham, NC), in collaboration with EPA.
Multiplexed Gene Expression in Human Primary Hepatocytes: This is a collection of multiplexed gene expression assays focused on Phase I and II metabolic enzymes and transporters. […] Fourteen gene targets were monitored by quantitative nuclease protection assay: six representative cytochrome P450 genes, four hepatic transporters, three Phase II conjugating enzymes, and one endogenous metabolism gene involved in cholesterol synthesis. Cells were exposed at 5 concentrations (0.004-40 µM) for 6, 24 or 48 hr. Gene targets are sentinels for five nuclear receptor signaling pathways: AhR, CAR, PXR, FXR, and PPARα. All gene are associated with nuclear receptor pathways: CYP1A1 and CYP1A2 with AHR; ABCB1, ABCG2, CYP2B6, CYP2C9, CYP2C19 and UGT1A1 with CAR; CYP3A4, GSTA2, SLCO1B1 and SULT2A1 with PXR; HMGCS2 with PPARA; and ABCB11 with FXR. […] Detailed description of the methods, data and analysis methods for this dataset will be presented in a separate publication.

For series [6], the target named is T4, ESR1 (estrogen receptor 1) (Homo sapiens, UniProt P03372).
T4 construct: expressed in transfected cells; host or cells: HepG2
T4 sequence (P03372 whole entry): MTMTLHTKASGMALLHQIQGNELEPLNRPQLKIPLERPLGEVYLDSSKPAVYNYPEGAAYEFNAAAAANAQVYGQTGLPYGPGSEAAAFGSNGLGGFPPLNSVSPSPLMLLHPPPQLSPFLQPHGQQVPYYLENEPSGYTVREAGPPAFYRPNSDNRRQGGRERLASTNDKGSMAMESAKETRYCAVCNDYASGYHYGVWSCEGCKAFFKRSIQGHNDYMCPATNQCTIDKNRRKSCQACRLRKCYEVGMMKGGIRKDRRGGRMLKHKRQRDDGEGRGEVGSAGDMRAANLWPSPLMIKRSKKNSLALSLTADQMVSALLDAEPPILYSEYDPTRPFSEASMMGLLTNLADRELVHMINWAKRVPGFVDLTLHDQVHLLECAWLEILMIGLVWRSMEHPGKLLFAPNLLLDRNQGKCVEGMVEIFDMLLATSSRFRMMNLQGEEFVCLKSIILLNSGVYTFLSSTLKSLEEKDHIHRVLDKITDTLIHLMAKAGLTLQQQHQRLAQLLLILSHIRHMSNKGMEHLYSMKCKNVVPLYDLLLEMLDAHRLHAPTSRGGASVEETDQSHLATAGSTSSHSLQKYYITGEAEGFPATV
Nature of the series: ATG_ERa_TRANS: Factorial reporter gene assay (HepG2). In kind it is cell-based. The conditions noted are these: HepG2 reporter. Here is the method:
(§5) A multiple reporter transcription unit (MRTU) library consisting of 48 transcription factor binding sites was transfected into the HepG2 human liver hepatoma cell line. In addition to the cis-acting reporter genes (CIS), a modification of the approach was used to generate a trans-system (TRANS) with a mammalian one-hybrid assay consisting of an additional 25 MRTU library reporting the activity of nuclear receptor super-family members. […] These assays were performed by Attagene Inc. (Morrisville NC) under contract to EPA.
(§6) In addition to the cis-acting reporter genes (CIS), a modification of the approach was used to generate a trans-system (TRANS) with a mammalian one-hybrid assay consisting of an additional 25 MRTU library reporting the activity of nuclear receptor super-family members. […] Chemicals were then tested in the CIS and TRANS assays at seven concentrations starting at the MTC and followed by three-fold serial dilutions. These assays were performed by Attagene Inc. (Morrisville NC) under contract to EPA. Detailed description of the methods, data and analysis methods for this dataset will be presented in a separate publication.

The target of series [7] is T4, ESR1 (estrogen receptor 1). The experiment in a line: ATG_ERE_CIS: Factorial reporter gene assay (HepG2). In kind it is cell-based. As to conditions: HepG2 reporter. Here is the method: as §5, §6
In series [8] the test system is Rat Liver. As to conditions: chronic study, rat liver; ref ToxRefDB; cited from earlier work. This is another data set of the same source.
A further series concerns the target T5, CAR (NR1I3) (Homo sapiens, UniProt Q14994).
T5 sequence (Q14994 1-352): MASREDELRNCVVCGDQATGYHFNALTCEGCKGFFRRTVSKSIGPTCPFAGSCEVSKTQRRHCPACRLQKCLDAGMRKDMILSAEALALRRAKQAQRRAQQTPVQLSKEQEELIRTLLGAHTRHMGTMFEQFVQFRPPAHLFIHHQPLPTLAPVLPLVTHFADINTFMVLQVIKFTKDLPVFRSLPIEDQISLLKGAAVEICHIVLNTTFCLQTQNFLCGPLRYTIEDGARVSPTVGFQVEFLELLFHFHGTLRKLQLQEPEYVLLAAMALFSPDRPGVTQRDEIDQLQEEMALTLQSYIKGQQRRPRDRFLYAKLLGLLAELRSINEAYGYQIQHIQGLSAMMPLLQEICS
The experiment in a line: ATG_PBREM_CIS: Factorial reporter gene assay (HepG2). Set-up: endogenous in cells; host or cells: HepG2. Type of series: cell-based. As to conditions: HepG2 reporter. As to the method: as §5, §6

A further series has as its target T6, ERa (ESR1) (Homo sapiens, UniProt P03372).
T6 construct: expressed in transfected cells; host or cells: HEK293
Nature of the series: NCGC_ERalpha_Antagonist: GAL4 BLAM Reporter gene assay: ERa. Type of series: cell-based. As to conditions: antagonist mode.

T6 sequence (P03372 whole entry): as the sequence (P03372 whole entry) above

In series [1] (HepG2), `O=S(=O)(O)C(F)(F)C(F)(F)C(F)(F)C(F)(F)C(F)(F)C(F)(F)C(F)(F)C(F)(F)F` [r240] yielded an ATG_PPARg_TRANS of 4.585. At PXR (NR1I2) [2], this compound returned an NVS_NR_hPXR of 4.496. The compound also came in with an NVS_NR_hPPARg on PPARg (PPARG) of 4.932. In the series with CYP2B6, this compound registered a CLZD_CYP2B6_24 of 4.97. The ATG_PXRE_CIS on PXR (NR1I2) [3] (HepG2) came to 4.745. The compound further yielded a CLZD_CYP3A4_24 in the series on CYP3A4 of 4.541. For the same compound, the NVS_NR_hAR with AR (androgen receptor) came to 4.625.
In series [1] (HepG2 reporter), `CC(C)(C)c1ccc(CSc2cnn(C(C)(C)C)c(=O)c2Cl)cc1` [r272] showed an ATG_PPARg_TRANS of 4.854. Moreover, in the series on Rat Liver [4], the CHR_Rat_Liver_3_NeoplasticLesion is recorded as 0. For the same compound, the CHR_Rat_Liver_2_PreneoplasticLesion in the series with Rat Liver [5] is 0. Also, the ATG_PXRE_CIS on PXR (NR1I2) [3] (HepG2 reporter) amounted to 5.444. The CLZD_ABCB11_24 in the series on ABCB11 is 5.168. This compound also gave an ATG_ERa_TRANS in series [6] of 4.367. For the same compound, the ATG_ERE_CIS in [7] is given as 4.959. In addition, the CHR_Rat_Liver_1_AnyLesion with Rat Liver [8] is listed as 0. Moreover, the ATG_PBREM_CIS on CAR (NR1I3) is 5.699. Besides, the NCGC_ERalpha_Antagonist on ERa (ESR1) came to 5.155.
